Data taken from patent US20230110351A1, “METHODS FOR TREATING PARKINSON'S DISEASE WITH SEPIAPTERIN” (PTC Therapeutics MP, Inc., priority 2020, published 2023).
Where two headings read alike, the source gives them in different places.

What was measured:
[1] = Pharmacokinetic parameters for BH4 after single dose of sepiapterin or BH4 in fasted subjects; assay type: in vivo
Experimental: Six subjects received sepiapterin in each group and three subjects received BH4 in each group where this treatment was administered.
Values shown are means of plasma concentrations of BH4 following administration at the doses shown.

[2] = Pharmacokinetic analysis of multiple doses of sepiapterin (once daily, 7 days, fed subjects); assay type: in vivo
Source text: Methods: Three cohorts of eight fed subjects each were randomized to receive once-daily sepiapterin or placebo for 7 days in a 6:2 ratio. A sentinel dose strategy was also used for administration of the highest sepiapterin dose.

[3] = CSF levels of sepiapterin, BH4, BH2, HVA and 5-HIAA after administration of sepiapterin; assay type: in vivo
Experimental: The cerebrospinal fluid (CSF) of selected subjects was collected via lumbar puncture on Day1 (before dose) and on Day 7 (i.e., following daily dosing for 7 days) approximately 30 minutes from time of the maximum observed plasma BH4 concentration (Tmax) as determined from the blood analysis. The cerebral spinal fluid (CSF) was analyzed. Descriptive statistics are provided to characterize any changes in neurotransmitter metabolism between the Day 1, and Day 7 sample results. Method: Analyses were conducted in CSF samples of subjects administered 60 mg/kg sepiapterin or placebo. The following analytes were measured: sepiapterin, BH4, BH2, homovanillic acid (HVA), and 5-hydroxyindoleacetic acid (HIAA). Descriptive (n, mean, SD, median, minimum, maximum) statistics for these analytes at Day 1 and Day 7+/−30 minutes from Tmax and change from baseline at Day 7 were determined for each analyte.

[4] = assay type: in vivo
Experimental: Method: Twelve subjects were given a single dose (10 mg/kg) of sepiapterin under fasting conditions and then 7 days later under fed conditions. Standard definitions of adverse events (AE) were used. All-cause AE were those that occurred at any time; treatment-emergent adverse events (TEAE) were those that occurred at or after the time of administration of study treatment. TEAEs related to study drug were based on the opinion of the investigator. Serious AE were defined as life threatening or caused death, hospitalization or prolongation of existing hospitalization, or were a persistent or significant disability/incapacity or a substantial disruption of the ability to conduct normal life functions, or a congenital anomaly/birth defect.

[5] = Food effect on administration of sepiapterin: plasma sepiapterin and BH4, fasted vs fed; assay type: in vivo; details: sepiapterin 10 mg/kg oral
Experimental: Method: Subjects received two oral doses of sepiapterin (10 mg/kg) separated by one week in a fasted and fed state. Subjects were fed a standard high-fat (approximately 50 percent of total caloric content of the meal) and high-calorie (approximately […] calories) meal starting 30 minutes prior to receiving their second oral dose of sepiapterin on Day 8.
Sampling for PK analysis occurred predose on Days 1 and 8 (within 30 minutes before dosing) and 0.5 hr, 1 hr, 2 hr, 4 hr, 8 hr, 12 hr, and 24 hr after the doses on Days 1 and 8. The blood concentrations of sepiapterin and BH4 were analyzed by MNG Labs.

[6] = human, plasma, po, 5 mg/kg, sepiapterin 5 mg/kg once daily, Day 1
[7] = human, plasma, po, 5 mg/kg, sepiapterin 5 mg/kg once daily, Day 7
[8] = human, plasma, po, 20 mg/kg, sepiapterin 20 mg/kg once daily, Day 1
[9] = human, plasma, po, 20 mg/kg, sepiapterin 20 mg/kg once daily, Day 7
[10] = human, plasma, po, 60 mg/kg, sepiapterin 60 mg/kg once daily, Day 1
[11] = human, plasma, po, 60 mg/kg, sepiapterin 60 mg/kg once daily, Day 7
[12] = 60 mg/kg sepiapterin arm, Day 1 (before dose)
[13] = 60 mg/kg sepiapterin, Day 7, +/-30 minutes from BH4 Tmax
[14] = 60 mg/kg sepiapterin, Day 7, same subject
[15] = Day 1 pre-dose, one subject with low baseline

In the case of C[C@H](O)C(=O)C1=Nc2c(nc(N)[nH]c2=O)NC1 [sepiapterin], the “AUC0-24 and AUC0-inf of BH4, subjects administered sepiapterin compared to subjects administered BH4” value [1] is reported as “much higher”, the Cmax [2, 6] is reported as 0.6 ng/mL and the Tmax [2, 6] is reported as 3 h. It also gave an AUC(0-inf) ([2]; human, plasma, po, 5 mg/kg, sepiapterin 5 mg/kg once daily, Day 1, read-out: AUC0-inf of sepiapterin) of 1 ng·h/mL, a Cmax [2, 7] of 0.6 ng/mL and a Tmax [2, 7] of 3 h. The AUC(0-inf) ([2]; human, plasma, po, 5 mg/kg, sepiapterin 5 mg/kg once daily, Day 7, read-out: AUC0-inf of sepiapterin) was 0.7 ng·h/mL, the Cmax [2, 8] was 1.2 ng/mL and the Tmax [2, 8] was 2.6 h. The AUC(0-inf) ([2]; human, plasma, po, 20 mg/kg, sepiapterin 20 mg/kg once daily, Day 1, read-out: AUC0-inf of sepiapterin) was 3.9 ng·h/mL, the Cmax [2, 9] was 1.3 ng/mL and the Tmax [2, 9] was 2.7 h. For the same compound, the AUC(0-inf) ([2]; human, plasma, po, 20 mg/kg, sepiapterin 20 mg/kg once daily, Day 7, read-out: AUC0-inf of sepiapterin) was 4.3 ng·h/mL, the Cmax [2, 10] was 2.7 ng/mL and the Tmax [2, 10] was 3.3 h. It also gave an AUC(0-inf) ([2]; human, plasma, po, 60 mg/kg, sepiapterin 60 mg/kg once daily, Day 1, read-out: AUC0-inf of sepiapterin) of 21.2 ng·h/mL, a Cmax [2, 11] of 2.8 ng/mL and a Tmax [2, 11] of 3 h. The AUC(0-inf) ([2]; human, plasma, po, 60 mg/kg, sepiapterin 60 mg/kg once daily, Day 7, read-out: AUC0-inf of sepiapterin) was 16 ng·h/mL, the AUC(0-t) ([2]; human, plasma, po, sepiapterin 60 mg/kg once daily, Day 1, read-out: AUC0-24 of sepiapterin) was 23 ng·h/mL and the “Drug accumulation (plasma sepiapterin and BH4 after 1 and 7 days of treatment)” value ([2]; once daily for 7 days) was “no drug accumulation”. For the same compound, the “5-HIAA Mean Concentration in CSF” value [3, 12] was 14.6 ng/mL, the “HVA Mean Concentration in CSF” value [3, 12] was 32.3 ng/mL and the “Sepiapterin Mean Concentration in CSF” value [3, 12] was 0 ng/mL. For the same compound, the “Sepiapterin in the CSF” value ([3]; 60 mg/kg sepiapterin, Day 1 or Day 7 +/-30 minutes from BH4 Tmax) was “not detected”, the “Change in CSF concentration of 5-HIAA relative to Day 1” value ([3]; 60 mg/kg sepiapterin, Day 7) was -1.142 ng/mL and the “5-HIAA Mean Concentration in CSF” value [3, 13] was 13.4 ng/mL. For the same compound, the “HVA Mean Concentration in CSF” value [3, 13] was 33.7 ng/mL, the “Sepiapterin Mean Concentration in CSF” value [3, 13] was 0 ng/mL and the “Change in CSF concentration of HVA relative to Day 1” value ([3]; 60 mg/kg sepiapterin, Day 7, increase) was 1.378 ng/mL. The “CSF 5-HIAA concentration, one subject” value [3, 14] was 9.53 ng/mL, the “CSF HVA concentration, one subject” value [3, 14] was 29.93 ng/mL and the “CSF 5-HIAA concentration, one subject” value [3, 15] was 3.69 ng/mL. For the same compound, the “CSF HVA concentration, one subject” value [3, 15] was 10.02 ng/mL, the TEAE ([4]; human, in vivo, 10 mg/kg) was 4 and the “TEAE related to study drug” value ([4]; human, in vivo, 10 mg/kg) was 1. For the same compound, the “≥1 AE” value ([4]; human, in vivo, 10 mg/kg) was 5, the “Incidence of adverse events, fed compared to fasted subjects” value ([4]; single dose 10 mg/kg) was “decreased incidence of adverse events” and the concentration at 0 h ([5]; human, plasma, fasted, 0 h (predose), read-out: Sepiapterin Concentration in Plasma, Maximum) was 0 nM. For the same compound, the concentration at 0.5 h ([5]; human, plasma, fasted, 0.5 h, read-out: Sepiapterin Concentration in Plasma, Minimum) was 0 nM, the concentration at 4 h ([5]; human, plasma, fasted, 4 h, read-out: Sepiapterin Concentration in Plasma, Minimum) was 0 nM and the concentration at 8 h ([5]; human, plasma, fasted, 8 h, read-out: Sepiapterin Concentration in Plasma, Maximum) was 0 nM. It also gave a concentration at 12 h ([5]; human, plasma, fasted, 12 h, read-out: Sepiapterin Concentration in Plasma, Maximum) of 0 nM, a concentration at 24 h ([5]; human, plasma, fasted, 24 h, read-out: Sepiapterin Concentration in Plasma, Maximum) of 0 nM and a concentration at 1 h ([5]; human, plasma, fed, 1 h, read-out: Sepiapterin Concentration in Plasma, Minimum) of 0 nM. For the same compound, the concentration at 2 h ([5]; human, plasma, fed, 2 h, read-out: Sepiapterin Concentration in Plasma, Minimum) was 0 nM, the “Cmax of BH4 in the plasma, fed compared to fasted” value [5] was “much higher” and the “Cmax of sepiapterin in the plasma, fed compared to fasted” value [5] was “much lower”. The “Geometric mean ratio (fasted/fed, 90% CI) for plasma sepiapterin AUClast” value [5] was 1.29 (0.84 to 2.00), the “Geometric mean ratio (fasted/fed, 90% CI) for plasma sepiapterin Cmax” value [5] was 1.57 (1.21 to 2.0) and the “Sepiapterin Concentration in Plasma, Mean” value ([5]; fasted, 0 h (predose)) was 0 nM. The “Sepiapterin Concentration in Plasma, Median” value ([5]; fasted, 0 h (predose)) was 0 nM, the concentration at 2 h ([5]; fasted, 0 h (predose), read-out: Sepiapterin Concentration in Plasma, Minimum) was 0 nM and the “Sepiapterin Concentration in Plasma, Mean” value ([5]; fasted, 8 h) was 0 nM. For the same compound, the “Sepiapterin Concentration in Plasma, Median” value ([5]; fasted, 8 h) was 0 nM, the concentration at 2 h ([5]; fasted, 8 h, read-out: Sepiapterin Concentration in Plasma, Minimum) was 0 nM and the “Sepiapterin Concentration in Plasma, Mean” value ([5]; fasted, 12 h) was 0 nM. The “Sepiapterin Concentration in Plasma, Median” value ([5]; fasted, 12 h) was 0 nM, the concentration at 2 h ([5]; fasted, 12 h, read-out: Sepiapterin Concentration in Plasma, Minimum) was 0 nM and the “Sepiapterin Concentration in Plasma, Mean” value ([5]; fasted, 24 h) was 0 nM. The “Sepiapterin Concentration in Plasma, Median” value ([5]; fasted, 24 h) was 0 nM, the concentration at 2 h ([5]; fasted, 24 h, read-out: Sepiapterin Concentration in Plasma, Minimum) was 0 nM and the “Sepiapterin Concentration in Plasma, Mean” value ([5]; fed, 0 h (predose)) was 0 nM. For the same compound, the “Sepiapterin Concentration in Plasma, Median” value ([5]; fed, 0 h (predose)) was 0 nM, the concentration at 24 h ([5]; fed, 0 h (predose), read-out: Sepiapterin Concentration in Plasma, Maximum) was 0 nM and the concentration at 2 h ([5]; fed, 0 h (predose), read-out: Sepiapterin Concentration in Plasma, Minimum) was 0 nM. For the same compound, the “Sepiapterin Concentration in Plasma, Median” value ([5]; fed, 0.5 h) was 0 nM, the concentration at 2 h ([5]; fed, 0.5 h, read-out: Sepiapterin Concentration in Plasma, Minimum) was 0 nM and the concentration at 2 h ([5]; fed, 4 h, read-out: Sepiapterin Concentration in Plasma, Minimum) was 0 nM. For the same compound, the “Sepiapterin Concentration in Plasma, Median” value ([5]; fed, 8 h) was 0 nM, the concentration at 2 h ([5]; fed, 8 h, read-out: Sepiapterin Concentration in Plasma, Minimum) was 0 nM and the “Sepiapterin Concentration in Plasma, Mean” value ([5]; fed, 12 h) was 0 nM. The “Sepiapterin Concentration in Plasma, Median” value ([5]; fed, 12 h) was 0 nM, the concentration at 24 h ([5]; fed, 12 h, read-out: Sepiapterin Concentration in Plasma, Maximum) was 0 nM and the concentration at 2 h ([5]; fed, 12 h, read-out: Sepiapterin Concentration in Plasma, Minimum) was 0 nM. For the same compound, the “Sepiapterin Concentration in Plasma, Mean” value ([5]; fed, 24 h) was 0 nM, the “Sepiapterin Concentration in Plasma, Median” value ([5]; fed, 24 h) was 0 nM and the concentration at 24 h ([5]; fed, 24 h, read-out: Sepiapterin Concentration in Plasma, Maximum) was 0 nM. It also gave a concentration at 2 h ([5]; fed, 24 h, read-out: Sepiapterin Concentration in Plasma, Minimum) of 0 nM.
